Counter-ions that a name gives are not always drawn.

As usually defined, the IC50 is the midpoint of a concentration-inhibition curve.

The target in this experiment is T1, PDE10A (human) (Homo sapiens, UniProt Q9Y233).
T1 construct: purchased BPS Bioscience
T1 sequence (Q9Y233 whole entry): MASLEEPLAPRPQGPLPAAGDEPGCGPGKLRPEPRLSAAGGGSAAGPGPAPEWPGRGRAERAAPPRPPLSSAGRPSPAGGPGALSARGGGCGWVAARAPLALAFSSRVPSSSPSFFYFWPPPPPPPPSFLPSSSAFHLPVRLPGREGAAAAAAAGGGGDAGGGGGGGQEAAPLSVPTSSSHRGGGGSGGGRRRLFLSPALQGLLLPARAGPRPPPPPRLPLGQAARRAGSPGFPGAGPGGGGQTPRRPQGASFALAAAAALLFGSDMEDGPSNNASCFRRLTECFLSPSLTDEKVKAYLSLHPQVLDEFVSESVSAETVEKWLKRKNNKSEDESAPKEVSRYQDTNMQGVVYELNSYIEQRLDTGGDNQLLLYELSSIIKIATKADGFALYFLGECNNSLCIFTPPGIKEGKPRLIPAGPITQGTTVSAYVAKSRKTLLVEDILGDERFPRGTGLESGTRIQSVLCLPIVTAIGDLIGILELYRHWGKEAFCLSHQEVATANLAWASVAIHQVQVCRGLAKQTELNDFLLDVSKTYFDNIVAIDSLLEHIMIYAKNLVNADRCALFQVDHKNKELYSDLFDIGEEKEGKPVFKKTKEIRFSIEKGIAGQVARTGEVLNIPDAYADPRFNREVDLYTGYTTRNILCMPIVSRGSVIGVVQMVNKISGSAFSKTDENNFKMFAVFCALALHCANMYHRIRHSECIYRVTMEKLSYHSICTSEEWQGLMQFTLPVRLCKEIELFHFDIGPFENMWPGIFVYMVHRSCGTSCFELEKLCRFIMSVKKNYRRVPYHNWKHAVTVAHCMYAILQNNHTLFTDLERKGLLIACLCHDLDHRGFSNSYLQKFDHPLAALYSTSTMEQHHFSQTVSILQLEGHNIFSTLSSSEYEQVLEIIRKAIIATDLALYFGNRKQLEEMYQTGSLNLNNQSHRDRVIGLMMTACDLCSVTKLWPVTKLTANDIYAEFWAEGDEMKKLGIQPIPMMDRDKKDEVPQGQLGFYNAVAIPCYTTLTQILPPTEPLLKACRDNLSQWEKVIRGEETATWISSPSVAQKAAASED
The experiment is described as follows: Measurement of PDE activity (HTRF cAMP kit), human PDE10A. Format: biochemical. Particulars: PDE enzymatic reaction, substrate 20 nM for PDE10, 60 minutes at 29 C. As for the experimental part:
The recombinant PDE proteins are used in in vitro enzymatic reaction for measurement of PDE activity. These recombinant proteins, including PDE10A (human, rat and mouse PDE10) and isoforms of PDEs 1, 3, 4, and 5, were purchased from commercial vendor BPS Bioscience. The enzymatic activity of PDEs was determined by cAMP measurement kit from CisBio (IBA) using HTRF technology.
The PDE enzymatic reaction was carried out in assay buffer (20 mM Tris-HCl pH7.5, 10 mM MgCl2, 0.1% bovine serum albumin) containing enzyme and substrate. The PDE enzymes concentration ranged from 10 pM-250 pM, depending on each enzyme's specific activity. The substrate cyclic nucleotide (cAMP or cGMP) concentration used in the assay was 20 nM for PDE10, and 100 nM for other PDEs. The inhibitory effect of compound was determined by incubating various concentration of inhibitor in the enzymatic assay. Typically, compound was serial diluted in DMSO then further diluted in assay buffer. Next, the compound at varying concentration was mixed with PDE enzyme. The reaction was initiated by addition of cyclic nucleotide substrate, and incubated for 60 minutes at 29 C. The reaction was stopped by addition of lysis buffer from assay kit. The cAMP-d2 and anti-cAMP cryptate in the lysis buffer detected the level of cAMP left from the PDE hydrolysis reaction. The PDE activity is reversely correlated with the amount of cAMP left in the reaction and can be converted to the percent activity of an uninhibited control (100%). Thus, IC50 value of inhibitor can be obtained by plotting inhibitor concentration against PDE activity at that concentration.
Compound `O=C1c2c(N3CCC(C(F)F)C3)ccnc2CN1CCc1ccc2ccccc2n1` (stereo not drawn) [compound 434] had an IC50 of less than 100 nM.
With `O=C1c2c(cccc2-c2ccc3cn[nH]c3c2)CN1CCc1ccc2ccccc2n1` [Example 97, 7-(1H-Indazol-6-yl)-2-(2-quinolin-2-yl-ethyl)-2,3-dihydro-isoindol-1-one] the figure was less than 100 nM.
Regarding `O=C1c2c(-c3ccncc3)ccc(F)c2CN1CCc1ccc2ccccc2n1` [Example 16, 4-Fluoro-7-pyridin-4-yl-2-(2-quinolin-2-yl-ethyl)-2,3-dihydro-isoindol-1-one], the IC50 is less than 100 nM.
On to `O=C1c2cccc(-c3ccoc3)c2CN1CCc1ccc2ccccc2n1` [Example 346, 4-Furan-3-yl-2-(2-quinolin-2-yl-ethyl)-2,3-dihydro-isoindol-1-one], for which the IC50 is less than 100 nM.
With `CN1CCC(N2CCN(c3cccc4c3C(=O)N(CCc3ccc5ccccc5n3)C4)CC2)CC1` [Example 105, 7-[4-(1-Methyl-piperidin-4-yl)-piperazin-1-yl]-2-(2-quinolin-2-yl-ethyl)-2,3-dihydro-isoindol-1-one] the figure was 200 to 500 nM; with `Cc1cc(-c2cccc3c2CN(CCc2ccc4ccccc4n2)C3=O)n(C)n1` [Example 348, 4-(2,5-Dimethyl-2H-pyrazol-3-yl)-2-(2-quinolin-2-yl-ethyl)-2,3-dihydro-isoindol-1-one], 100 to 200 nM; with `CC(C)Oc1ccc(-c2ccncc2)c2c1CN(CCc1ccc3ccccc3n1)C2=O` [Example 205, 4-Isopropoxy-7-pyridin-4-yl-2-(2-quinolin-2-yl-ethyl)-2,3-dihydro-isoindol-1-one], less than 100 nM.
As for `CC(C)n1c(CCN2Cc3cccc(N4CCOCC4)c3C2=O)nc2ccccc21` [Example 304, 2-[2-(1-Isopropyl-1H-benzoimidazol-2-yl)-ethyl]-7-morpholin-4-yl-2,3-dihydro-isoindol-1-one trifluoroacetate], the IC50 fell in the range of 100 to 200 nM.
Take `CCn1cc(-c2ccnc3c2C(=O)N(CCc2ccc4ccccc4n2)C3)cn1` [Example 333, 4-(1-Ethyl-1H-pyrazol-4-yl)-6-(2-quinolin-2-yl-ethyl)-6,7-dihydro-pyrrolo[3,4-b]pyridin-5-one]: the IC50 fell in the range of 100 to 200 nM.
Consider `CCCn1c(CCN2Cc3cccc(N4CCOCC4)c3C2=O)nc2ccccc21` [Example 305, 7-Morpholin-4-yl-2-[2-(1-propyl-1H-benzoimidazol-2-yl)-ethyl]-2,3-dihydro-isoindol-1-one trifluoroacetate], for which the IC50 was 200 to 500 nM.
`O=C1c2cccc(-c3ccsc3)c2CN1CCc1ccc2ccccc2n1` [Example 345, 2-(2-Quinolin-2-yl-ethyl)-4-thiophen-3-yl-2,3-dihydro-isoindol-1-one] yielded a concentration for half-maximal inhibition (IC50) of less than 100 nM.
`O=C1c2c(cccc2OCc2cccnc2)CN1CCc1ccc2ccccc2n1` [Example 127, 7-(Pyridin-3-ylmethoxy)-2-(2-quinolin-2-yl-ethyl)-2,3-dihydro-isoindol-1-one] showed an IC50 of 100 to 200 nM.
On to `COc1ncc(-c2cccc3c2C(=O)N(CCc2ccc4ccccc4n2)C3)cn1` [Example 61, 7-(2-Methoxy-pyrimidin-5-yl)-2-(2-quinolin-2-yl-ethyl)-2,3-dihydro-isoindol-1-one], for which the half-inhibitory concentration (IC50) lay in the range of 100 to 200 nM.
With `O=C1c2c(cccc2-c2cnc[nH]2)CN1CCc1ccc2ccccc2n1` [Example 84, 7-(3H-Imidazol-4-yl)-2-(2-quinolin-2-yl-ethyl)-2,3-dihydro-isoindol-1-one] the figure was less than 100 nM; with `O=C1c2c(cccc2-c2cn[nH]c2)CN1CCc1ccc2ccccc2n1` [Example 78, 7-(1H-Pyrazol-4-yl)-2-(2-quinolin-2-yl-ethyl)-2,3-dihydro-isoindol-1-one], less than 100 nM; with `CCCn1c(CCN2Cc3cccc(-c4ccncc4)c3C2=O)nc2ccccc21` [Example 302, 2-[2-(1-Propyl-1H-benzoimidazol-2-yl)-ethyl]-7-pyridin-4-yl-2,3-dihydro-isoindol-1-one trifluoroacetate], less than 100 nM.
`O=C1c2c(N3CCC(CF)C3)ccnc2CN1CCc1ccc2ccccc2n1` (stereo not drawn) [compound 435, 4-[3-(Fluoromethyl)pyrrolidin-1-yl]-6-[2-(2-quinolyl)ethyl]-7H-pyrrolo[3,4-b]pyridin-5-one] came in with an IC50 of less than 100 nM.
`COc1ccc(-c2ccc(F)c3c2C(=O)N(CCc2ccc4ccccc4n2)C3)cc1` [compound 441, 4-Fluoro-7-(4-methoxyphenyl)-2-[2-(2-quinolyl)ethyl]isoindolin-1-one]: the IC50 fell in the range of 100 to 200 nM.
For the compound `O=C1c2c(-c3ccncc3)ccnc2CN1CCc1cc(-c2ccncc2)c2ccccc2n1` [compound 484, 4-(4-Pyridyl)-6-[2-[4-(4-pyridyl)-2-quinolyl]ethyl]-7H-pyrrolo[3,4-b]pyridin-5-one], the IC50 is less than 100 nM.
The figure for `COc1ccc(-c2cccc3c2C(=O)N(CCc2ccc4ccccc4n2)C3)cc1F` [Example 32, 7-(3-Fluoro-4-methoxy-phenyl)-2-(2-quinolin-2-yl-ethyl)-2,3-dihydro-isoindol-1-one] is 200 to 500 nM.
For `COCCCOc1ccc(-c2ccncc2)c2c1CN(CCc1ccc3ccccc3n1)C2=O` [Example 204, 4-(3-Methoxy-propoxy)-7-pyridin-4-yl-2-(2-quinolin-2-yl-ethyl)-2,3-dihydro-isoindol-1-one], the IC50 is less than 100 nM.
The figure for `O=C1c2c(cccc2N2CCC(F)(F)CC2)CN1CCc1ccc2ccccc2n1` [Example 143, 7-(4,4-Difluoro-piperidin-1-yl)-2-(2-quinolin-2-yl-ethyl)-2,3-dihydro-isoindol-1-one] is less than 100 nM; for `O=C1c2c(cccc2-c2ccncc2)CN1CCc1ccc2ccccc2n1` [Example 5, 7-Pyridin-4-yl-2-(2-quinolin-2-yl-ethyl)-2,3-dihydro-isoindol-1-one] it is less than 100 nM; for `O=C1c2c(cccc2-c2ccncc2Cl)CN1CCc1ccc2ccccc2n1` [Example 170, 7-(3-Chloro-pyridin-4-yl)-2-(2-quinolin-2-yl-ethyl)-2,3-dihydro-isoindol-1-one trifluoroacetate] it is less than 100 nM.
Compound `COc1cnccc1-c1cccc2c1CN(CCc1ccc3ccccc3n1)C2=O` [compound 388, 4-(3-Methoxy-4-pyridyl)-2-[2-(2-quinolyl)ethyl]isoindolin-1-one] registered an IC50 of 100 to 200 nM.
With `N#Cc1ccc(-c2cccc3c2C(=O)N(CCc2ccc4ccccc4n2)C3)s1` [Example 281, 5-[3-oxo-2-(2-quinolin-2-yl-ethyl)-2,3-dihydro-1H-isoindol-4-yl]-thiophene-2-carbonitrile], the IC50 is less than 100 nM.
`Cc1noc(C)c1-c1cccc2c1CN(CCc1ccc3ccccc3n1)C2=O` [Example 349, 4-(3,5-Dimethyl-isoxazol-4-yl)-2-(2-quinolin-2-yl-ethyl)-2,3-dihydro-isoindol-1-one]: the half-inhibitory concentration (IC50) is 200 to 500 nM.
For `O=C1c2c(-c3cccnc3)ccc(F)c2CN1CCc1ccc2ccccc2n1` [compound 438, 4-fluoro-7-(3-pyridyl)-2-[2-(2-quinolyl)ethyl]isoindolin-1-one], the IC50 is less than 100 nM.
For the compound `O=C1c2cccc(-c3cncnc3)c2CN1CCc1ccc2ccccc2n1` [Example 208, 4-Pyrimidin-5-yl-2-(2-quinolin-2-yl-ethyl)-2,3-dihydro-isoindol-1-one], the IC50 is less than 100 nM.
Take `Cc1cscc1-c1cccc2c1C(=O)N(CCc1ccc3ccccc3n1)C2` [Example 73, 7-(4-Methyl-thiophen-3-yl)-2-(2-quinolin-2-yl-ethyl)-2,3-dihydro-isoindol-1-one]: the IC50 fell in the range of 200 to 500 nM.
For `Cc1ccsc1-c1cccc2c1CN(CCc1ccc3ccccc3n1)C2=O` [Example 351, 4-(3-Methyl-thiophen-2-yl)-2-(2-quinolin-2-yl-ethyl)-2,3-dihydro-isoindol-1-one], the IC50 was in the range of 200 to 500 nM.
In turn, `Cn1cncc1-c1cccc2c1C(=O)N(CCc1ccc3ccccc3n1)C2` [Example 94, 7-(3-Methyl-3H-imidazol-4-yl)-2-(2-quinolin-2-yl-ethyl)-2,3-dihydro-isoindol-1-one] gave an IC50 of 200 to 500 nM.
Turning to `Cn1c(CCN2Cc3cccc(-c4ccncc4)c3C2=O)nc2cc(F)ccc21` [Example 221, 2-[2-(5-Fluoro-1-methyl-1H-benzoimidazol-2-yl)-ethyl]-7-pyridin-4-yl-2,3-dihydro-isoindol-1-one trifluoroacetate], the IC50 is less than 100 nM.
The compound `O=C1c2c(cccc2-c2cc(F)ccc2F)CN1CCc1ccc2ccccc2n1` [Example 51, 7-(2,5-Difluoro-phenyl)-2-(2-quinolin-2-yl-ethyl)-2,3-dihydro-isoindol-1-one] yielded an IC50 of 200 to 500 nM.
`O=C1c2c(cccc2-c2ccoc2)CN1CCc1ccc2ccccc2n1` [Example 46, 7-Furan-3-yl-2-(2-quinolin-2-yl-ethyl)-2,3-dihydro-isoindol-1-one]: the IC50 was less than 100 nM.
The compound `O=C1c2cccc(-c3cn[nH]c3)c2CN1CCc1ccc2ccccc2n1` [Example 225, 4-(1H-Pyrazol-4-yl)-2-(2-quinolin-2-yl-ethyl)-2,3-dihydro-isoindol-1-one] returned an IC50 of less than 100 nM.
